Results as given in BindingDB's records for doi:10.1021/acsmedchemlett.8b00149 (Merck, 2018).

Target: Free fatty acid receptor 1 (Homo sapiens, UniProt O14842)
Assay: Agonist activity at recombinant human GPR40 expressed in HEK293 cells assessed as increase in IP1 accumulation measured after 60 mins by HTRF assay

Chain of Free fatty acid receptor 1 (O14842 whole entry): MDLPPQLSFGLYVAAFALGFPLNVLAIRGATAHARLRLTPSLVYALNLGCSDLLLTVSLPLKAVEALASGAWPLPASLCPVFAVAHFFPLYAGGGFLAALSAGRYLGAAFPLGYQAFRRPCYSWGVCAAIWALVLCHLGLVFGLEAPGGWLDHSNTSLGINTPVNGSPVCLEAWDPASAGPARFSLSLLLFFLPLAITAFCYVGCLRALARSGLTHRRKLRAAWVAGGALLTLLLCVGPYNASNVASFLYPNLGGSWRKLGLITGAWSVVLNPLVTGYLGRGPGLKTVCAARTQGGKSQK

COc1cc(-c2cnc(C3CCc4ccc([C@H](C5CC5)[C@H](C)C(=O)O)cc4O3)c(F)c2)c(F)cn1 (stereo partly specified)
EC50: 1.6 nM
